Assay results reported in the supplement of paper PMC12137928.
Structures can show the parent of a compound that is named as a salt.

Key:
HCT116 [1] = details: 72 h
In short: (§1)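 IC50 and maximal efficacy were derived from four-parameter Hill curve fits. The underlying CellTiter-Glo luminescence was scaled so that vehicle equals 0% and positive control equals -100%, and was then pattern-corrected. HCT116 cells had been seeded in 1536-well plates at 250 per well.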

HCT116 [2] = assay: efficacy (maximum % inhibition of viability vs DMSO); higher = more cytotoxic; details: 72 h
In short: as §1

Row | SMILES | IC50 cell viability (HCT116 [1]; ICRF193 0 nM) | IC50 cell viability (HCT116 [1]; ICRF193 200 nM) | efficacy (HCT116 [2]; ICRF193 0 nM) | efficacy (HCT116 [2]; ICRF193 200 nM)
1 | Oc1cc(Cl)ccc1Oc1ccc(Cl)cc1Cl [Triclosan] | 16.4 µM | 18.3 µM | 92.5% | 95.2%
2 | CC(CN(C)C)CN1c2ccccc2Sc2ccc(C(F)(F)F)cc21 (stereo unspecified) [Trifluomeprazine 2-butenedioate] | 16.4 µM | 18.3 µM | 40.2% | 49.5%
3 | O=c1[nH]c(=O)n([C@H]2C[C@H](O)[C@@H](CO)O2)cc1C(F)(F)F [Trifluridine] | 29.1 µM | 8.2 µM | 49.1% | 59%
4 | COc1cc(NCc2ccc3nc(N)nc(N)c3c2C)cc(OC)c1OC [Trimetrexate] | 1.16 µM | 0.92 µM | 102% | 90.7%
5 | N[C@@H]1[C@H]2CN(c3nc4c(cc3F)c(=O)c(C(=O)O)cn4-c3ccc(F)cc3F)C[C@@H]12 [Trovafloxacin mesylate] | 29.1 µM | 20.6 µM | 52.4% | 65.3%
6 | CC[C@H]1OC(=O)C[C@@H](OC(C)=O)[C@H](C)[C@@H](O[C@@H]2O[C@H](C)[C@@H](O[C@H]3C[C@@](C)(O)[C@@H](OC(=O)CC(C)C)[C@H](C)O3)[C@H](N(C)C)[C@H]2O)[C@@H](CC=O)C[C@@H](C)C(=O)/C=C/C(C)=C/[C@@H]1CO[C@@H]1O[C@H](C)[C@@H](O)[C@@H](OC)[C@H]1OC [Tylvalosin] | > 45.8 µM | 18.3 µM | – | 53.7%
7 | CCCCCCCC(=O)CC[C@@H]1[C@@H](C/C=C\CCCC(=O)OC(C)C)[C@@H](O)C[C@H]1O [Unoprostone isopropyl ester] | > 45.8 µM | 18.3 µM | – | 42.2%
8 | CCCCC(=O)O [Valeric acid] | > 45.8 µM | 29.1 µM | – | 62%
9 | CCCCC(=O)OCC(=O)[C@]1(O)Cc2c(O)c3c(c(O)c2[C@@H](O[C@H]2C[C@H](NC(=O)C(F)(F)F)[C@H](O)[C@H](C)O2)C1)C(=O)c1c(OC)cccc1C3=O [Valrubicin] | 3.66 µM | 2.31 µM | 90.1% | 97.8%
10 | c1cnc2cc3c(cc2n1)[C@@H]1CNC[C@H]3C1 [Varenicline tartrate] | > 45.8 µM | 29.1 µM | – | 80.4%
11 | CC[C@]1(O)C[C@@H]2CN(CCc3c([nH]c4ccccc34)[C@@](C(=O)OC)(c3cc4c(cc3OC)N(C)[C@H]3[C@@](O)(C(=O)OC)[C@H](OC(C)=O)[C@]5(CC)C=CCN6CC[C@]43[C@@H]65)C2)C1 [Vinblastine sulfate] | 0.082 µM | 0.058 µM | 75.8% | 82.2%
12 | CC[C@]1(O)C[C@H]2CN(CCc3c([nH]c4ccccc34)[C@@](C(=O)OC)(c3cc4c(cc3OC)N(C=O)[C@H]3[C@@](O)(C(=O)OC)[C@H](OC(C)=O)[C@]5(CC)C=CCN6CC[C@]43[C@@H]65)C2)C1 [Vincristine] | 0.164 µM | 0.183 µM | 70.2% | 63.5%
13 | CC[C@]1(O)C[C@@H]2CN(CCc3c([nH]c4ccccc34)[C@@](C(=O)OC)(c3cc4c(cc3OC)N(C)[C@H]3[C@@](O)(C(N)=O)[C@H](O)[C@]5(CC)C=CCN6CC[C@]43[C@@H]65)C2)C1 [Vindesine sulfate salt] | 0.058 µM | 0.058 µM | 75.5% | 69.2%
14 | CC[C@]12C=CCN3CC[C@@]4(c5cc([C@@]6(C(=O)OC)C[C@@H]7C[C@@H](C(C)(F)F)CN(Cc8c6[nH]c6ccccc86)C7)c(OC)cc5N(C)[C@H]4[C@@](O)(C(=O)OC)[C@@H]1OC(C)=O)[C@@H]32 [Vinflunine (Tartrate)] | 0.73 µM | > 45.8 µM | 60.1% | –
15 | CCC1=C[C@@H]2CN(C1)Cc1c([nH]c3ccccc13)[C@@](C(=O)OC)(c1cc3c(cc1OC)N(C)[C@H]1[C@@](O)(C(=O)OC)[C@H](OC(C)=O)[C@]4(CC)C=CCN5CC[C@]31[C@@H]54)C2 [Vinorelbine tartrate] | 0.0651 µM | 0.058 µM | 64.9% | 72.3%
16 | O=C(CCCCCCC(=O)Nc1ccccc1)NO [Vorinostat (SAHA)] | 3.66 µM | 2.31 µM | 109% | 101%
17 | [O-][n+]1ccccc1[S-].[O-][n+]1ccccc1[S-].[Zn+2] [Zinc pyrithione] | 4.61 µM | 2.06 µM | 107% | 102%
18 | O[C@@H](COc1cccc2ncccc12)CN1CCN([C@@H]2c3ccccc3[C@@H]3[C@H](c4ccccc42)C3(F)F)CC1 [Zosuquidar trihydrochloride] | 23.1 µM | 20.6 µM | 141% | 105%
19 | OCCN1CCN(CC/C=C2/c3ccccc3Sc3ccc(C(F)(F)F)cc32)CC1 [cis-Flupentixol] | 25.9 µM | 16.4 µM | 119% | 102%
